Test results from patent publication US9486461B2, “Methods and compositions for inducing apoptosis by stimulating ER stress” (UNIVERSITY OF SOUTHERN CALIFORNIA, priority 2007, dated 2016).

Experiments:
CHOP protein = assay: Western blot of CHOP in various cancer cell lines; format: cell-based; conditions: glioblastoma, breast carcinoma, pancreatic carcinoma, Burkitt's lymphoma, multiple myeloma cell lines; Cxb 40 and 60 μM, DMC 30 and 50 μM; 48 hours
Method: Total cellular lysates were prepared and analyzed by Western blot analysis with specific antibodies to CHOP. As a control for equal loading, all blots were also analyzed with antibodies to actin (only one of these control blots is shown at the bottom). The tumor type of each cell line is indicated on the right.
(§1) Total cell lysates were prepared by lysis of cells with radioimmunoprecipitation assay buffer (28), and protein concentrations were determined using the bicinchoninic acid protein assay reagent (Pierce, Rockford, Ill.). For Western blot analysis, 50 Ag of each sample were processed as described (29). The primary antibodies were purchased from Cell Signaling Technologies (Beverly, Mass.), Cayman Chemical (Ann Arbor, Mich.), or Santa Cruz Biotechnology, Inc. (Santa Cruz, Calif.) and used according to the manufacturer's recommendations. The secondary antibodies were coupled to horseradish peroxidase and detected by chemiluminescence using the SuperSignal West substrate from Pierce. All immunoblots were repeated at least once to confirm the results.

[1] = system: CHOP, GRP78, caspase 4 in U251 glioblastoma cells; assay: Western blot of ER stress indicators in U251 cells; format: cell-based, human; conditions: for CHOP expression, time kinetics: U251, 50 μmol/L, 4 h up to 24 h
Method: U251 glioblastoma cells were cultured in the presence of 1 μM thapsigargin (Tg) or 60 μM DMC for various times, as indicated. Total cell lysates were prepared and analyzed by Western blot with specific antibodies to the ER stress proteins GRP78, CHOP, and caspase 4 (Casp 4). Actin was used as a loading control.
Shown are (A) time kinetics at 50 μM of each drug, and (B) concentration dependence after 15 hours of incubation.
Shown are (FIG. 7A) time kinetics at 50 μM of each drug, and (FIG. 7B), concentration dependence after 15 hours of incubation.
U251 glioblastoma cells were cultured for 24 hours in the presence of increasing concentrations of (A) bortezomib (BZM) or (B) DMC. Total cell lysates were analyzed by Western blot with specific antibodies to ubiquitin, GRP78, CHOP, and caspase 4. Actin was used as a loading control.
as §1
Total cell lysates were prepared and analyzed by Western blot analysis as described earlier (19). Immunohistochemical analysis of protein expression in tumor tissues was performed with the use of the Vectastain avidin-biotin complex method kit (Vector Laboratories) as described previously (32). The primary antibodies were purchased from Cell Signaling Technology or Santa Cruz Biotechnology, Inc. and used according to the manufacturers' recommendations. All immunoblots and stainings were repeated at least once to confirm the results.

cellular translation = assay: Incorporation of 35S-methionine into newly translated proteins; format: cell-based; conditions: 2 h of treatment
[2] = system: cytoplasmic calcium levels in U251 cells; assay: Cytoplasmic calcium imaging (Fura-2/AM); format: cell-based, human; conditions: for elevation of cytoplasmic calcium levels: 100 μmol/L of each drug, Fura-2/AM loaded cells
Method: (A) U251 cells were treated with DMC or various coxibs and NSAIDs, and changes in intracellular calcium levels were recorded as described in Materials & Methods. […] Arrows indicate timepoint of drug addition. […] Essentially similar results were also obtained with the LN229 cell line.
The cells were loaded by incubating them with […] Fura-2/AM (Invitrogen) for 30 min at room temperature in external solution containing 138 mmol/L NaCl, 5.6 mmol/L KCl, 1.2 mmol/L MgCl2, 2.6 mmol/L CaCl2, 10 mmol/L HEPES, and 4 mmol/L glucose (pH 7.4). After loading, the cells were rinsed and transferred to the imaging setup. The cells were treated with individual drugs for 10 s, whereas fluorescence was elicited with the excitation wavelength alternating between 350 and 380 nm, using a Polychromator V (TILL Photonics GmbH, Grafelfing, Germany) to provide illumination via a Zeiss Axiovert 100 microscope with a Zeiss Fluar 40 oil objective (Carl Zeiss, Jena, Germany). Images were captured using a Cascade 512B CCD camera (Photometrics, Tucson, Ariz.) controlled with MetaFluor software (Molecular Devices, Sunnyvale, Calif.) at 0.5 Hz acquisition frequency. Ratios of the images obtained at 350 and 380 nm excitation were used to show changes in the cytoplasmic calcium concentration, according to the principles developed by Grynkiewicz et al. (31).

U251 glioblastoma cells = assay: MTT assay, U251; format: cell-based, human; conditions: for IC50: Homo sapiens, U-251, U251, 48 h, MTT, read-out: IC50 (50% inhibition of cell growth)
Method: U251 glioblastoma cells were treated with different drugs, and various parameters of cell growth and cell death were comparatively analyzed. As controls, cells remained either non-treated (Co) or were treated with the solvent DMSO alone. (FIG. 8A) Cells were treated with 30 or 50 μM DMC for 48 hours and the effects on cell growth/survival and on cell death were determined by various assays. […] Below the three panels, the expression levels of the ER stress indicators CHOP, GRP78, and caspase 4 at the end of the 48 hour drug treatment is shown, as determined by Western blot analysis with specific antibodies (actin served as a loading control. (FIG. 8B) Cells were treated with various concentrations of different drugs for 48 hours, as indicated, and cell death was measured with the cell death ELISA kit. (FIG. 8C) Cells were treated with DMC or various coxibs and traditional NSAIDs for 48 hours, as indicated, and cell growth and survival was determined with the conventional MTT assay (control, non-treated cells were set at 100%). MTT assays were performed in 96-well plates with the use of 3.0-8.0×10^3 cells per well as described in detail elsewhere (34). In parallel, the expression levels of CHOP and GRP78 protein were determined by Western blot analysis. […]
(§2) 3-(4,5-Dimethylthiazol-2-yl)-2,5-diphenyltetrazolium bromide (MTT) assays were performed in 96-well plates with the use of 3.0×10^3 to 8.0×10^3 cells per well as described in detail elsewhere (19).

[3] = system: CHOP protein in U87 glioblastoma tumor tissue; assay: Immunohistochemical staining for CHOP in xenograft tumor tissue; format: in vivo, nude mice; conditions: for CHOP staining of tumor tissues: 30-180 mg/kg per day for 50 h, DMC and celecoxib already at lowest dosages
Excerpt: In all cases, representative sections are shown.
Immunohistochemical analysis of protein expression in tumor tissues was done with the use of the Vectastain avidin-biotin complex method kit (Vector Laboratories, Burlingame, Calif.) according to the manufacturer's instructions. This procedure uses biotinylated secondary antibodies and a preformed avidin: biotinylated enzyme complex that has been termed the avidin-biotin complex method technique. As the primary antibody, we used anti-CHOP antibody (Santa Cruz Biotechnology) diluted 1:100 in 2% normal goat blocking serum.

[4] = system: T98G glioblastoma cell line; assay: MTT assay, T98G; format: cell-based; conditions: Homo sapiens, 48 h, read-out: IC50 (50% inhibition of cell growth)
Method: (§3) For comparison purposes to the known anti-multiple myeloma effects of bortezomib, the RPMI/8226 multiple myeloma cell line was included in (A).
as §2

[5] = system: LN229 glioblastoma cell line; assay: MTT assay, LN229; format: cell-based, human; conditions: LN229, 48 h
Method: as §3, §2

SMILES | induction of CHOP protein (CHOP protein) | CHOP expression, time kinetics [1] | increase in CHOP or GRP78 protein, concentration dependence ([1]; U251, 15 hours, concentrations up to 75 or 100 μmol/L) | expression of GRP78 and CHOP ([1]; U251, increasing concentrations, 24 hours) | time at which activation (cleavage) of caspase-4 was first noted ([1]; U251, 1 μM thapsigargin or 60 μM DMC) [h] | CHOP and GRP78 expression levels ([1]; U251, 1 μM thapsigargin or 60 μM DMC, prominent increase at 6 h and thereafter) | reduction of ongoing translation (cellular translation; 60 μmol/L) [%] | elevation of cytoplasmic calcium levels [2] | average maximum calcium peak compared with celecoxib ([2]; 100 μmol/L, difference not statistically significant) | IC50 (U251 glioblastoma cells) [µM] | cellular activity in MTT assays (U251 glioblastoma cells; U251, 30 and 50 μmol/L, 48 hours) | CHOP expression in tumor tissue ([3]; U87MG xenograft, 1 mg/kg BZM and 7.5 mg/kg DMC individually or in combination, 50 h) | CHOP staining of tumor tissues ([3]; U87 xenograft) | CHOP protein expression in tumor tissue ([3]; U87 xenograft, animals fed drug for 50 h) | IC50 [4] [µM] | sensitivity of LN229 compared with the other glioblastoma cell lines [5] | reduction of ongoing translation (cellular translation; 80 μmol/L) [%] | detectable effect on cell growth and survival (MTT) (U251 glioblastoma cells; U251, 48 hours, concentrations of up to 100 μmol/L)
Cc1ccc(C)c(-c2cc(C(F)(F)F)nn2-c2ccc(S(N)(=O)=O)cc2)c1 [DMC, 4-[5-(2,5-dimethylphenyl)-3-(trifluoromethyl)-1H-pyrazol-1-yl]benzenesulfonamide] | potently induce CHOP | pronounced induction of CHOP | potently induced | strong induction of GRP78 and CHOP | ~24 | substantially elevated | ~90 | pronounced calcium spike | somewhat greater | < 40 | reduced cellular activity | did not cause much elevated CHOP expression | positive for CHOP | large increase in CHOP protein expression | < 40 | slightly less sensitive |  | 
Cc1ccc(-c2cc(C(F)(F)F)nn2-c2ccc(S(N)(=O)=O)cc2)cc1 [celecoxib, 4-[5-(4-methylphenyl)-3-(trifluoromethyl)-1H-pyrazol-1-yl]benzenesulfonamide] | potently induce CHOP | noticeable lower compared with DMC |  |  |  |  |  | pronounced calcium spike |  | ~50 |  |  | positive for CHOP |  | ~50 | slightly less sensitive | ~90 | reduced the viability of the cell culture
